US10487056B2, “Small molecule androgen receptor inhibitors and methods of use thereof” (GEORGETOWN UNIVERSITY, priority 2015, dated 2019)

Assays:
Format in all cases: cell-based
AR [1] = experiment: 22Rv1-ARE-luc androgen-response element luciferase reporter assay; conditions: range of doses, 24 hours
Experimental: VCaP and CWR22Rv1 (referred to as 22Rv1) cells were transduced with ARE-luciferase Cignal Lenti Pathway Reporter (Qiagen; Valencia, Calif.) and cultured as described above in the presence of 1 μg/mL puromycin. Following antibiotic selection, cells stably expressing ARE-luciferase were isolated, cloned and cultured to generate a stable ARE-reporter cell lines.

22Rv1 cells [2] = experiment: MTT cell viability assay, 22Rv1 cells; conditions: 3 days
Experimental: Cells were treated in the manner indicated below for the specified period of time. MTT assay was performed as described in Amin et al., Mol. Cancer Ther., 13:341-52 (2014).
To determine the effects of SH-I-125 on prostate cancer cell growth, 22Rv1 cells were treated with SH-I-125 and cell viability was measured after a period of 3 days. […]. In comparison, non-tumorigenic primary prostate epithelial cells (PrEC) retained 80% viability in the presence of a similar range of doses of SH-I-125, showing that tumorigenic cells are more susceptible to the growth inhibitory properties of SH-I-125 compared to non-tumorigenic cells (FIG. 8B). […] Staurosporine was used as a positive control for cell death induction in live and dead assays (FIG. 9C).

22Rv1 cells [3] = experiment: Caspase-Glo 3/7 activity assay, 22Rv1 cells; conditions: 3 days
Experimental: 22Rv1 cells were treated with SH-I-125 (1 μM) for one, two, or three days, and caspase 3/7 activity was measured using Caspase-Glo 3/7 substrates. […] Data represent mean of three independent experiments with quadruplicate samples; bars, SEM. ***, p value <0.001 determined by ANOVA.
(§1) Caspase 3/7 activity was measured using Caspase-Glo 3/7 substrates. Data represent mean of three independent experiments with quadruplicate samples; bars, SEM. ***, p value <0.001 determined by ANOVA.
[…]; Madison, Wis.).
. […] Staurosporine was used as a positive control for apoptosis induction (FIG. 10B).

VCaP cells = experiment: Caspase-Glo 3/7 activity assay, VCaP cells; conditions: 3 days
Experimental: as §1

AR and AR-V7 = experiment: Western blot of AR and AR-V7 levels in 22Rv1 cells; conditions: 3 days, SH-I-125 at 1 μM
Experimental: AR levels were assessed by Western blotting. β-actin was used as a loading control.
(§2) AR and AR-V7 levels were assessed. β-actin was used as a loading control.
as §2
MG132 (5 μM), a known proteasome inhibitor, was added on Day 2. AR expression was assessed by Western blotting. β-actin was used as a loading control.

VCaP-MDVR cells = experiment: Cell viability (MTT), VCaP-MDVR cells; conditions: MDV3100, ARN-509 10 μM, SH-I-125 range, 3 days
Experimental: (§6) Cell viability was measured using the MTT assay.

22Rv1-MDVR cells = experiment: Cell viability (MTT), 22Rv1-MDVR cells; conditions: MDV3100, ARN-509 10 μM, SH-I-125 range, 3 days
Experimental: as §6

AR [4] = experiment: VCaP-MDVR-ARE-luc luciferase reporter assay; conditions: VCaP-MDVR-ARE-luc cells, range of doses, 24 hours
Experimental: (§3) […]. Luciferase activity was measured and plotted as a percentage of control. Data represent the mean of three independent experiments with quadruplicate samples; bars, SEM. ***, p value <0.001 determined by ANOVA.
(§4) VCaP-MDVR and 22Rv1-MDVR stably expressing ARE-luciferase construct (VCaP-MDVR-ARE-luc and 22Rv1-MDVR-ARE-luc) were generated as described above in the Materials and Methods section. […].

AR [5] = experiment: 22Rv1-MDVR-ARE-luc luciferase reporter assay; conditions: 22Rv1-MDVR-ARE-luc cells, range of doses, 24 hours
Experimental: as §3, §4

AR [6] = experiment: Immunofluorescence staining of AR in 22Rv1-MDVR cells; conditions: MDV3100 10 μM, ARN509 10 μM or SH-I-125 1 μM, 24 hours
Experimental: […]. AR and AR-V7 expression levels were assessed.
(§5) Immunofluorescence staining was performed as described in Amin et al., Mol. Cancer Ther., 13:341-52 (2014).

AR [7] = experiment: Immunofluorescence staining of AR and PSA in VCaP-MDVR cells; conditions: DHT 1 nM, MDV3100 10 μM or SH-I-125 1 μM, 24 hours
Experimental: AR and PSA expression levels were assessed.
as §5

| Structure (SMILES) | inhibitory effect on ARE-luciferase activity (plateau) (AR [1]) | prevention of growth compared with SH-I-125 (22Rv1 cells [2]) | caspase 3/7 activity (22Rv1 cells [3]) | caspase 3/7 activity (VCaP cells) | cellular AR and AR-V7 levels (AR and AR-V7) | cell growth / viability (VCaP-MDVR cells) | cell growth / viability (22Rv1-MDVR cells) | reduction of luciferase activity (AR [4]) | luciferase activity (AR activity) (AR [5]) | AR nuclear localization (AR [6]) | AR expression / nuclear localization (AR [7]) | PSA expression (AR [7]) |
| --- | --- | --- | --- | --- | --- | --- | --- | --- | --- | --- | --- | --- |
| CNC(=O)c1ccc(N2C(=S)N(c3cnc(C#N)c(C(F)(F)F)c3)C(=O)C23CCC3)cc1F [ARN-509] | 50% | significantly less effective | did not have a similar effect | did not have a similar effect | no effect | continued proliferation | continued proliferation | 50% | unchanged from control | unaffected | – | – |
| CNC(=O)c1ccc(N2C(=S)N(c3ccc(C#N)c(C(F)(F)F)c3)C(=O)C2(C)C)cc1F [MDV3100] | – | significantly less effective | did not have a similar effect | did not have a similar effect | no effect | continued proliferation | continued proliferation | 50% | unchanged from control | unaffected | AR expression was not attenuated | continued to inhibit PSA expression |
